Experimental findings from publication PMC4745926, “Absorption, Metabolism, and Excretion by Freely Moving Rats of 3,4-DHPEA-EDA and Related Polyphenols from Olive Fruits (Olea europaea)” (Journal of Nutrition and Metabolism, 2016) are described below.

Each structure is given as a SMILES string. “And” between values parts separate entries of the source, which are not always exact repeats. Equal entries are not always repeated. “Also recorded” adds a separate entry of the source.

The nature of the data set: Urinary excretion after oral administration. The format is in vivo, Wistar ST rats. The method, then:
SPF Wistar ST rats (6 weeks of age, male, 180 ± 20 g of body weight) were purchased from Japan SLC Inc. (Hamamatsu, Japan). The rats were housed in an air-conditioned room at 22 ± 2°C under cycles of 12 hours dark and 12 hours light and given free access to a commercial diet and water for a week. The rats were then fasted for over 16 hours before the experiments. The present study was approved by the Animal Care and Use Committee at Kagawa University, and the rat treatment conformed to the Rules of Animal Experiments at Kagawa University. 3,4-[…] (300 mg/kg body weight; 936.51 μmol/kg) dissolved in 50% polyethylene glycol aqueous solution was administered orally via a stomach tube to the portal vein cannulated rats. Blood samples (450 μL) were then collected using a heparinized syringe attached to the cannula before administration and 5, 15, 30, 60, 120, and 240 min after administration. Urine was also collected before administration and 0 to 2 h and 2 to 4 h after administration. For intravenous administration, 3,4-[…] (10 mg/kg; 31.22 μmol/kg) was injected into the jugular vein, and blood (450 μL) was collected using a heparinized syringe before administration and 5, 15, 30, 60, 120, and 240 min after administration via the jugular vein cannula. The blood (450 μL) collected was immediately cooled on ice and centrifuged at 15,000 rpm for 5 min at 4°C to obtain over 200 μL plasma. Urine was also collected before administration and 0 to 2 h and 2 to 4 h after administration. Bile was collected via the bile duct cannula before administration and 0 to 2 h and 2 to 4 h after intravenous administration. The collected plasma, urine, and bile were immediately stored in an ice box until further analyses. HT (oral administration: 100 mg/kg; 648.66 μmol/kg, intravenous administration: 10 mg/kg; 64.87 μmol/kg) and Ole (oral administration: 300 mg/kg; 555.02 μmol/kg, intravenous administration: 10 mg/kg; 18.50 μmol/kg) were investigated using the same method as described above. Metabolites were deconjugated by using β-glucuronidase (500 U) and sulfatase (50 U) in 50 μL 625 mM MOPS (pH 6.8), which was added to 200 μL of plasma, urine, or bile. The mixture was incubated for 45 min at 37°C and subjected to extraction using QuEChERS [33]. […] Shimadzu, Kyoto, Japan) equipped with a Shim-pack XR-ODS column (3.0 mm I.D. × 100 mm; Shimadzu, Kyoto, Japan) at 40°C with a mobile phase of 0.5% TFA-1% acetonitrile aqueous solution (A) and 0.5% TFA-75% acetonitrile aqueous solution (B). The elution conditions are described as follows: isocratic elution of 0% B was maintained for 4.0 min; linear gradient 0 to 4% B, 4.0-4.5 min; linear gradient 4.0-16.0% B, 4.5-16.0 min; linear gradient 16.0-100% B, 16.0-25.0 min; isocratic elution of 100% B, 25.0-26.0 min; and linear gradient 100 to 0% B, 26.0-26.1 min, with a flow rate of 0.5 mL/min. Injection volume was 50 μL. All eluted peaks were detected at 279 nm with a diode array detector (SPD-M20A; Shimadzu, Kyoto, Japan).

Where [1] appears, read: after oral administration, within 240 min.

With `C/C=C1/[C@H](O[C@@H]2O[C@H](CO)[C@@H](O)[C@H](O)[C@H]2O)OC=C(C(=O)OC)[C@H]1CC(=O)OCCc1ccc(O)c(O)c1` [Oleuropein, reference compound], the Ole in urine (after oral administration) was 0.07 % of dose.

As to `OCCc1ccc(O)c(O)c1` [Hydroxytyrosol, 2-(3,4-dihydroxyphenyl) ethyl alcohol, reference compound], the HT in urine under setting [1] is recorded as 1.14 % of dose.

Turning to `CC=C(C=O)C(CC=O)CC(=O)OCCc1ccc(O)c(O)c1` (centres unmarked) [3,4-DHPEA-EDA, 3,4-dihydroxyphenylethyl elenolate dialdehydic form], where the note is “after oral administration”, the “Detection of 3,4-DHPEA-EDA in urine” value is “not observed; also recorded: not detected”. For the same molecule, under setting [1], the HT in urine was 0.51 % of dose; the HVA in urine was 0.38 % of dose and 0.39 % of dose; the HVAOH in urine result is “not detected”. The “total excretion ratio including metabolites (3,4-DHPEA-EDA : HT : Ole)” value (urine after oral administration, Ole = 1) turned out to be 12.9. Also, the “Total metabolites (including intact compound) excreted in the urine” value (within 240 min after oral administration) was 0.9%.
